Legend:
[1] = Amount of fragrance ingredients retained on paper blotter after evaporation (ethanol extraction, GC-MS); assay type: physicochemical
Procedure, shortened: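 100 µL of fragrance formulation applied to paper blotters kept at 32°C open to air; at each time three blotters extracted 1 h in ethanol with methyl decanoate internal standard and analysed by GC-MS (HP-5MS, 50–280°C). Amounts averaged over triplicates and expressed as percent of time-zero level.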

[2] = Headspace concentration of fragrance ingredients over blotter (thermal desorption GC-MS); assay type: physicochemical
Method: The headspace concentration of individual ingredients of fragrance TAK, as formulated in either a conventional EdT (EdT1) or a fragrance composition of the invention (C1), was assessed by the method described below.
A 10 cm length was cut from a standard perfumers' blotter. A sample of 100µL volume was applied to the upper surface of the blotter with a syringe. The blotter was placed on a hot plate thermostatted at 32°C and left to equilibrate for 5 minutes. Two desorption tubes (6cm length 4mm internal diameter) each containing 2 cm length of Tenax TA adsorbent were fitted to the glass part of a headspace apparatus shown in figure 9. The glass part was fitted over the blotter, a metering pump was connected to one of the desorption tubes and air was drawn through the apparatus flushing the headspace over the blotter at a rate of 17mL/min. Sampling continued for about 16.5 minutes until 280mL of air had been extracted. Then the outlet desorption tube was analysed by gas chromatography as described below. The glass part was removed from the blotter which was left on the hotplate until the next sampling time when two fresh desorption tubes were fitted and the extraction procedure repeated for a further 280mL of extracted headspace.
• Initial Temp: 50°C • Initial Time: 5 min • Rate: 3°C /min • Final Temp: 250°C • Final Time: 20 min • Run Time: 91.67 min
• Column: HP-5MS 30m * 0.25mm * 0.25µm • Gas: Helium • Constant pressure 12.675 psi
• Initial Temp: -30°C • Equilibration Time: 0.05 min • Initial Time: 0.00 min • Rate 12°C / min • End Temp: 260°C • Hold Time: 10 min
Temperature program • Initial Temp: 35°C • Delay Time: 0.30 min • Initial Time: 0.00 min • Rate: 30°C / min • End Temp: 250°C • Hold Time: 5.00 min
TDU Settings • Transfer Temp: 250°C • Transfer Temp Mode: Fixed • Desorption Mode: splitless • Sample mode: Retain tube - standby cooling • Standby Temp: 50°C
Detector MS • MS 5973 • Mass range: 35 to 350 • Threshold: 150 • Mass Quad: 150°C • Mass Source: 230°C
Following the procedure of example 2, the headspace concentration of representative ingredients of fragrance COM1 was determined. COM1 was dosed at 5 and 20 % either in control EdT3 and EdT4 or in compositions of the invention C7 and C8, as shown in table 10.
The headspace concentration of individual ingredients of fragrance TAK (see Table 1), as formulated in either a conventional EdT (EdT1) or fragrance compositions of the invention (C14, C15), was assessed by the method described in example 2.

For CC(C=O)Cc1ccc(C(C)(C)C)cc1 (stereo not shown) [Lilial™, 3-(4-tert-Butylphenyl)-2-methylpropanal], which “amount of fragrance ingredient retained on blotter (percentage of the initial amount)” value (“amount … (percentage of the initial amount)” below) ([1]; Table 3, fragrance TAK in C1, 15 min, 32°C) is on record?
The value was 78%.

What about the “amount … (percentage of the initial amount)” value ([1]; Table 3, fragrance TAK in C1, 60 min, 32°C) of the same compound?
The value was 79%.

What about the “amount … (percentage of the initial amount)” value ([1]; Table 3, fragrance TAK in C1, 120 min, 32°C) of the same compound?
Its value is 75%.

And the “amount … (percentage of the initial amount)” value ([1]; Table 3, fragrance TAK in C1, 240 min, 32°C)?
The value was 72%.

What about the “amount … (percentage of the initial amount)” value ([1]; Table 3, fragrance TAK in C1, 480 min, 32°C) of the same compound?
The value was 51%.

What about the “amount … (percentage of the initial amount)” value ([1]; Table 3, fragrance TAK in EdT1, 15 min, 32°C) of the same compound?
The value was 91%.

What about the “amount … (percentage of the initial amount)” value ([1]; Table 3, fragrance TAK in EdT1, 60 min, 32°C) of the same compound?
Its value is 84%.

And the “amount … (percentage of the initial amount)” value ([1]; Table 3, fragrance TAK in EdT1, 120 min, 32°C)?
Its value is 75%.

What about the “amount … (percentage of the initial amount)” value ([1]; Table 3, fragrance TAK in EdT1, 240 min, 32°C) of the same compound?
Its value is 65%.

What about the “amount … (percentage of the initial amount)” value ([1]; Table 3, fragrance TAK in EdT1, 480 min, 32°C) of the same compound?
The value was 23%.

What about the “amount … (percentage of the initial amount)” value ([1]; Table 3, fragrance TAK in EdT1 or C1, T0, set at 100% (normalisation)) of the same compound?
The value was 100%.

What about the “amount … (percentage of the initial amount)” value ([1]; Table 4, fragrance TAK in C2, 15 min, 32°C) of the same compound?
The value was 98%.

And the “amount … (percentage of the initial amount)” value ([1]; Table 4, fragrance TAK in C2, 480 min, 32°C)?
Its value is 49%.

And the “amount … (percentage of the initial amount)” value ([1]; Table 4, fragrance TAK in EdT1, 15 min, 32°C)?
The value was 87%.

And the “amount … (percentage of the initial amount)” value ([1]; Table 4, fragrance TAK in EdT1, 480 min, 32°C)?
The value was 18%.

What about the “amount … (percentage of the initial amount)” value ([1]; Table 4, fragrance TAK in EdT1 or C2, T0, set at 100% (normalisation)) of the same compound?
Its value is 100%.

What about the “amount … (percentage of the initial amount)” value ([1]; Table 5, fragrance TAK in C3, 15 min, 32°C) of the same compound?
Its value is 88%.

What about the “amount … (percentage of the initial amount)” value ([1]; Table 5, fragrance TAK in C3, 60 min, 32°C) of the same compound?
The value was 92%.

What about the “amount … (percentage of the initial amount)” value ([1]; Table 5, fragrance TAK in C3, 120 min, 32°C) of the same compound?
Its value is 90%.

What about the “amount … (percentage of the initial amount)” value ([1]; Table 5, fragrance TAK in C3, 240 min, 32°C) of the same compound?
The value was 87%.

What about the “amount … (percentage of the initial amount)” value ([1]; Table 5, fragrance TAK in C3, 480 min, 32°C) of the same compound?
Its value is 60%.

And the “amount … (percentage of the initial amount)” value ([1]; Table 5, fragrance TAK in C3, 1440 min, 32°C)?
Its value is 45%.

And the “amount … (percentage of the initial amount)” value ([1]; Table 5, fragrance TAK in EdT1, 15 min, 32°C)?
The value was 91%.

What about the “amount … (percentage of the initial amount)” value ([1]; Table 5, fragrance TAK in EdT1, 60 min, 32°C) of the same compound?
The value was 84%.

And the “amount … (percentage of the initial amount)” value ([1]; Table 5, fragrance TAK in EdT1, 120 min, 32°C)?
The value was 75%.

What about the “amount … (percentage of the initial amount)” value ([1]; Table 5, fragrance TAK in EdT1, 240 min, 32°C) of the same compound?
Its value is 65%.

What about the “amount … (percentage of the initial amount)” value ([1]; Table 5, fragrance TAK in EdT1, 480 min, 32°C) of the same compound?
Its value is 23%.

And the “amount … (percentage of the initial amount)” value ([1]; Table 5, fragrance TAK in EdT1, 1440 min, 32°C)?
The value was 6%.

And the “amount … (percentage of the initial amount)” value ([1]; Table 5, fragrance TAK in EdT1 or C3, T0, set at 100% (normalisation))?
Its value is 100%.

What about the “amount … (percentage of the initial amount)” value ([1]; Table 6, fragrance TAK in C4, 15 min, 32°C) of the same compound?
Its value is 99%.

What about the “amount … (percentage of the initial amount)” value ([1]; Table 6, fragrance TAK in C4, 60 min, 32°C) of the same compound?
Its value is 92%.

And the “amount … (percentage of the initial amount)” value ([1]; Table 6, fragrance TAK in C4, 120 min, 32°C)?
Its value is 88%.

What about the “amount … (percentage of the initial amount)” value ([1]; Table 6, fragrance TAK in C4, 240 min, 32°C) of the same compound?
The value was 87%.

What about the “amount … (percentage of the initial amount)” value ([1]; Table 6, fragrance TAK in C4, 480 min, 32°C) of the same compound?
Its value is 52%.

What about the “amount … (percentage of the initial amount)” value ([1]; Table 6, fragrance TAK in EdT1, 15 min, 32°C) of the same compound?
The value was 91%.

What about the “amount … (percentage of the initial amount)” value ([1]; Table 6, fragrance TAK in EdT1, 60 min, 32°C) of the same compound?
Its value is 84%.

And the “amount … (percentage of the initial amount)” value ([1]; Table 6, fragrance TAK in EdT1, 120 min, 32°C)?
Its value is 75%.

And the “amount … (percentage of the initial amount)” value ([1]; Table 6, fragrance TAK in EdT1, 240 min, 32°C)?
The value was 65%.

What about the “amount … (percentage of the initial amount)” value ([1]; Table 6, fragrance TAK in EdT1, 480 min, 32°C) of the same compound?
The value was 23%.

What about the “amount … (percentage of the initial amount)” value ([1]; Table 6, fragrance TAK in EdT1 or C4, T0, set at 100% (normalisation)) of the same compound?
Its value is 100%.

What about the “headspace concentration in composition C1 compared to control EdT1” value ([2]; fragrance TAK, T0 + 8h, Figure 4) of the same compound?
The value was “significantly greater”.

Which results are given for CC/C=C(\C)C(O)CCCCC (stereo not shown) [Undecavertol™, (E)-4-methyldec-3-en-5-ol]?
amount of fragrance ingredient retained on blotter (percentage of the initial amount) ([1]; Table 9, fragrance COM1 in C5, T0 + 15 min): 84.6%; amount of fragrance ingredient retained on blotter (percentage of the initial amount) ([1]; Table 9, fragrance COM1 in C5, T0 + 480 min): 19.1%; amount of fragrance ingredient retained on blotter (percentage of the initial amount) ([1]; Table 9, fragrance COM1 in C5, T0 +1440 min): 2.62%; amount of fragrance ingredient retained on blotter (percentage of the initial amount) ([1]; Table 9, fragrance COM1 in C6, T0 + 15 min): 73.2%; amount of fragrance ingredient retained on blotter (percentage of the initial amount) ([1]; Table 9, fragrance COM1 in C6, T0 + 480 min): 14%; amount of fragrance ingredient retained on blotter (percentage of the initial amount) ([1]; Table 9, fragrance COM1 in C6, T0 +1440 min): 3.1%; amount of fragrance ingredient retained on blotter (percentage of the initial amount) ([1]; Table 9, fragrance COM1 in EdT2, C5 or C6, T0, set at 100% (normalisation)): 100%; amount of fragrance ingredient retained on blotter (percentage of the initial amount) ([1]; Table 9, fragrance COM1 in EdT2, T0 + 15 min): 75.7%; amount of fragrance ingredient retained on blotter (percentage of the initial amount) ([1]; Table 9, fragrance COM1 in EdT2, T0 + 480 min): 8.41%; amount of fragrance ingredient retained on blotter (percentage of the initial amount) ([1]; Table 9, fragrance COM1 in EdT2, T0 +1440 min): 4.93%; presence in the headspace of composition C8 compared to control EdT4 ([2]; COM1 dosed at 20 wt%, after 8 hours): more present

Reference: patent publication EP3375430A1, “FRAGRANCE COMPOSITIONS” (Takasago International Corporation, priority 2017, dated 2018)
